“And” between values parts separate entries of the source, which are not always exact repeats. Equal entries are not always repeated.
System: 521955-158-R6-J3-PDC complex spheroid growth, % test/control
Test: Anticancer human tumor 521955-158-R6-J3-PDC patient-derived pancreatic carcinoma cell line growth inhibition [Asc]
Details: for viability, T/C: stronger effect = lower value; active means viability on the fitted dose curve at most 10% of control; inactive means the rest
How it was run: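 Stromal components (HUVEC and hMSC) are co-assembled with the cancer cells into multicellular spheroids. Drugs are then added singly or paired, at concentrations falling by half-log increments from a clinically achievable maximum, capped at 10 microM without known Cmax.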

[1] = curve of first compound, second compound 0.0316 µM
[2] = curve of first compound, second compound 0.1 µM
[3] = curve of first compound, second compound 0.316 µM
[4] = curve of first compound, second compound 1 µM
[5] = curve of first compound, second compound 3.16 µM
[6] = curve of first compound, second compound 10 µM
[7] = second compound 0.0316 µM, first compound 0.0316 µM
[8] = second compound 0.0316 µM, first compound 0.1 µM
[9] = second compound 0.0316 µM, first compound 0.316 µM
[10] = second compound 0.0316 µM, first compound 1 µM
[11] = second compound 0.1 µM, first compound 0.0316 µM
[12] = second compound 0.1 µM, first compound 0.1 µM
[13] = second compound 0.1 µM, first compound 0.316 µM
[14] = second compound 0.1 µM, first compound 1 µM
[15] = second compound 0.316 µM, first compound 0.0316 µM
[16] = second compound 0.316 µM, first compound 0.1 µM
[17] = second compound 0.316 µM, first compound 0.316 µM
[18] = second compound 0.316 µM, first compound 1 µM
[19] = second compound 1 µM, first compound 0.0316 µM
[20] = second compound 1 µM, first compound 0.1 µM
[21] = second compound 1 µM, first compound 0.316 µM
[22] = second compound 1 µM, first compound 1 µM
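Further: spheroids exposed to compounds for 7 days.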
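Wherever viability, T/C is given: 100% = DMSO vehicle control wells.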

CCN1C(C(=O)NC23CCC(C(=O)O)(CC2)CC3)C(c2cccc(Cl)c2F)C2(C(=O)Nc3cc(Cl)ccc32)C12CCCCC2 (stereo not drawn) + Cc1c(S(C)(=O)=O)c(-c2cc(F)cc(N3CCN(c4ccc(NS(=O)(=O)c5ccc(NC(CCN6CCC(C(=O)OCCCP(=O)(O)O)CC6)CSc6ccccc6)c(S(=O)(=O)C(F)(F)F)c5)cc4)CC3)c2)c(-c2ccc(Cl)cc2)n1C(C)C
< 0.00949 µM: IC50 [3] | IC50 [4] | IC50 [5] | IC50 [6]
> 3 µM: IC50 [1] | IC50 [2]
active: viability, T/C (second compound 10 µM, first compound 0.949 µM) 18.1% | viability, T/C (second compound 10 µM, first compound 3 µM) 1.44%
inactive: viability, T/C (second compound 0.0316 µM, first compound 0.00949 µM) 102% | viability, T/C (second compound 0.0316 µM, first compound 0.03 µM) 78.8% | viability, T/C (second compound 0.0316 µM, first compound 0.0949 µM) 72.6% | viability, T/C (second compound 0.0316 µM, first compound 0.3 µM) 70.7% | viability, T/C (second compound 0.0316 µM, first compound 0.949 µM) 84.2% | viability, T/C (second compound 0.0316 µM, first compound 3 µM) 73.2% | viability, T/C (second compound 0.1 µM, first compound 0.00949 µM) 77.7% | viability, T/C (second compound 0.1 µM, first compound 0.03 µM) 75.7% | viability, T/C (second compound 0.1 µM, first compound 0.0949 µM) 67.4% | viability, T/C (second compound 0.1 µM, first compound 0.3 µM) 66.5% | viability, T/C (second compound 0.1 µM, first compound 0.949 µM) 69.4% | viability, T/C (second compound 0.1 µM, first compound 3 µM) 50.8% | viability, T/C (second compound 0.316 µM, first compound 0.00949 µM) 49.2% | viability, T/C (second compound 0.316 µM, first compound 0.03 µM) 51.8% | viability, T/C (second compound 0.316 µM, first compound 0.0949 µM) 44% | viability, T/C (second compound 0.316 µM, first compound 0.3 µM) 45.4% | viability, T/C (second compound 0.316 µM, first compound 0.949 µM) 41.2% | viability, T/C (second compound 0.316 µM, first compound 3 µM) 31.7% | viability, T/C (second compound 1 µM, first compound 0.00949 µM) 41.2% | viability, T/C (second compound 1 µM, first compound 0.03 µM) 25.7% | viability, T/C (second compound 1 µM, first compound 0.0949 µM) 39.5% | viability, T/C (second compound 1 µM, first compound 0.3 µM) 35% | viability, T/C (second compound 1 µM, first compound 0.949 µM) 30.6% | viability, T/C (second compound 1 µM, first compound 3 µM) 25.2% | viability, T/C (second compound 3.16 µM, first compound 0.00949 µM) 19.7% | viability, T/C (second compound 3.16 µM, first compound 0.03 µM) 17.3% | viability, T/C (second compound 3.16 µM, first compound 0.0949 µM) 17.5% | viability, T/C (second compound 3.16 µM, first compound 0.3 µM) 14.9% | viability, T/C (second compound 3.16 µM, first compound 0.949 µM) 13.9% | viability, T/C (second compound 3.16 µM, first compound 3 µM) 9.12% | viability, T/C (second compound 10 µM, first compound 0.00949 µM) 14.6% | viability, T/C (second compound 10 µM, first compound 0.03 µM) 11.3% | viability, T/C (second compound 10 µM, first compound 0.0949 µM) 15.8% | viability, T/C (second compound 10 µM, first compound 0.3 µM) 9.21%

O=C(c1ccc(F)c(F)c1Nc1ccc(I)cc1F)N1CC(O)([C@@H]2CCCCN2)C1 + Cc1c(S(C)(=O)=O)c(-c2cc(F)cc(N3CCN(c4ccc(NS(=O)(=O)c5ccc(NC(CCN6CCC(C(=O)OCCCP(=O)(O)O)CC6)CSc6ccccc6)c(S(=O)(=O)C(F)(F)F)c5)cc4)CC3)c2)c(-c2ccc(Cl)cc2)n1C(C)C
active: viability, T/C [18] 5.24% | viability, T/C [21] 6.12% | viability, T/C [22] 1.37% | viability, T/C (second compound 3.16 µM, first compound 0.316 µM) 1.36% | viability, T/C (second compound 3.16 µM, first compound 1 µM) 0.4% | viability, T/C (second compound 10 µM, first compound 0.0316 µM) 7.74% | viability, T/C (second compound 10 µM, first compound 0.1 µM) 3.48% | viability, T/C (second compound 10 µM, first compound 0.316 µM) 1.23% | viability, T/C (second compound 10 µM, first compound 1 µM) 2.45%
0.166 µM: IC50 [2]
inactive: viability, T/C (second compound 0.0316 µM, first compound 0.00316 µM) 78.6% | viability, T/C (second compound 0.0316 µM, first compound 0.01 µM) 83.5% | viability, T/C [7] 97.3% | viability, T/C [8] 85% | viability, T/C [9] 42.2% | viability, T/C [10] 26.7% | viability, T/C (second compound 0.1 µM, first compound 0.00316 µM) 79.8% | viability, T/C (second compound 0.1 µM, first compound 0.01 µM) 69.1% | viability, T/C [11] 84.2% | viability, T/C [12] 59.5% | viability, T/C [13] 35.3% | viability, T/C [14] 17.9% | viability, T/C (second compound 0.316 µM, first compound 0.00316 µM) 47.8% | viability, T/C (second compound 0.316 µM, first compound 0.01 µM) 46.7% | viability, T/C [15] 43.1% | viability, T/C [16] 36.8% | viability, T/C [17] 20.2% | viability, T/C (second compound 1 µM, first compound 0.00316 µM) 35.3% | viability, T/C (second compound 1 µM, first compound 0.01 µM) 39.4% | viability, T/C [19] 29.7% | viability, T/C [20] 20.5% | viability, T/C (second compound 3.16 µM, first compound 0.00316 µM) 19.1% | viability, T/C (second compound 3.16 µM, first compound 0.01 µM) 25% | viability, T/C (second compound 3.16 µM, first compound 0.0316 µM) 19.6% | viability, T/C (second compound 3.16 µM, first compound 0.1 µM) 6.55% | viability, T/C (second compound 10 µM, first compound 0.00316 µM) 14.6% | viability, T/C (second compound 10 µM, first compound 0.01 µM) 11.5%
< 0.00316 µM: IC50 [3] | IC50 [4] | IC50 [5] | IC50 [6]
0.257 µM: IC50 [1]

NC1CCC(NC2CC2c2ccccc2)CC1 (stereo not drawn)
> 0.1 µM: IC50 (curve of compound)
inactive: viability, T/C (compound 0.000316 µM) 104% and 94% and 98.2% | viability, T/C (compound 0.001 µM) 124% and 120% and 99.5% | viability, T/C (compound 0.00316 µM) 136% and 105% and 97.8% | viability, T/C (compound 0.01 µM) 128% and 117% and 109% | viability, T/C (compound 0.0316 µM) 128% and 103% and 93.2% | viability, T/C (compound 0.1 µM) 117% and 99.7% and 89.2%

C=CC(=O)N1CCN(c2nc(=O)n(-c3c(C)ccnc3C(C)C)c3nc(-c4c(O)cccc4F)c(F)cc23)C(C)C1 (stereo not drawn) + CNC(C)C(=O)NC1CN(S(=O)(=O)c2cccc(S(=O)(=O)N3CCC4CCC(C(=O)NC(c5ccccc5)c5ccccc5)N4C(=O)C(NC(=O)C(C)NC)C3)c2)CCC2CCC(C(=O)NC(c3ccccc3)c3ccccc3)N2C1=O
inactive: viability, T/C (second compound 0.00316 µM, first compound 0.0316 µM) 98.2% | viability, T/C (second compound 0.00316 µM, first compound 0.1 µM) 110% | viability, T/C (second compound 0.00316 µM, first compound 0.316 µM) 116% | viability, T/C (second compound 0.00316 µM, first compound 1 µM) 121% | viability, T/C (second compound 0.00316 µM, first compound 3.16 µM) 98.8% | viability, T/C (second compound 0.00316 µM, first compound 10 µM) 80.4% | viability, T/C (second compound 0.01 µM, first compound 0.0316 µM) 121% | viability, T/C (second compound 0.01 µM, first compound 0.1 µM) 85.3% | viability, T/C (second compound 0.01 µM, first compound 0.316 µM) 89.8% | viability, T/C (second compound 0.01 µM, first compound 1 µM) 94.9% | viability, T/C (second compound 0.01 µM, first compound 3.16 µM) 105% | viability, T/C (second compound 0.01 µM, first compound 10 µM) 81.3% | viability, T/C [7] 95.2% | viability, T/C [8] 76.5% | viability, T/C [9] 108% | viability, T/C [10] 95.1% | viability, T/C (second compound 0.0316 µM, first compound 3.16 µM) 104% | viability, T/C (second compound 0.0316 µM, first compound 10 µM) 70.8% | viability, T/C [11] 92.2% | viability, T/C [12] 78.7% | viability, T/C [13] 88% | viability, T/C [14] 108% | viability, T/C (second compound 0.1 µM, first compound 3.16 µM) 93% | viability, T/C (second compound 0.1 µM, first compound 10 µM) 66.7% | viability, T/C [15] 89.7% | viability, T/C [16] 91.6% | viability, T/C [17] 79.2% | viability, T/C [18] 107% | viability, T/C (second compound 0.316 µM, first compound 3.16 µM) 100% | viability, T/C (second compound 0.316 µM, first compound 10 µM) 84.2% | viability, T/C [19] 81.4% | viability, T/C [20] 82.5% | viability, T/C [21] 89.5% | viability, T/C [22] 88.7% | viability, T/C (second compound 1 µM, first compound 3.16 µM) 94.6% | viability, T/C (second compound 1 µM, first compound 10 µM) 83.5%
> 10 µM: IC50 (curve of first compound, second compound 0.00316 µM) | IC50 (curve of first compound, second compound 0.01 µM) | IC50 [1] | IC50 [2] | IC50 [3] | IC50 [4]

Reference: PubChem BioAssay AID1963451 (Molecular Pharmacology Branch, DTP, NCI, 2024)
